Data published in the supplement of paper PMC11061612.

What was measured:
[1] = test system: 647-V (Bladder Carcinoma); assay: Bliss excess, mean over the matrix (fraction); higher = more synergy
Summary of the method: (§1)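 After 24 hours at 37°C and 5% CO2 in 1536-well plates, cells in DMEM/F12 or RPMI plus 10% FBS received two-drug dose matrices for 72 hours. Viability came from CellTiter-Glo 2.0 luminescence and was scaled as inhibition, anchored at 0 by vehicle wells and at 1 by blank wells. Combination Emax is taken as the second-highest inhibition in the matrix, and Bliss excess as the observed combination effect less EA + EB − EA·EB, with EA and EB the single-agent effects.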

[2] = test system: CAL-39 (Other Solid Carcinomas); assay: as above
Summary of the method: as §1

CS1 (Chondrosarcoma) = assay: as above
Summary of the method: as §1

[3] = test system: ETK-1 (Biliary Tract Carcinoma); assay: as above
Summary of the method: as §1

[4] = test system: FU-OV-1 (Ovarian Carcinoma); assay: as above
Summary of the method: as §1

[5] = test system: GDM-1 (Acute Myeloid Leukemia); assay: as above
Summary of the method: as §1

[6] = test system: HCC1143 (Breast Carcinoma); assay: as above
Summary of the method: as §1

[7] = test system: KG-1 (Acute Myeloid Leukemia); assay: as above
Summary of the method: as §1

[8] = test system: MEG-01 (Chronic Myelogenous Leukemia); assay: as above
Summary of the method: as §1

MSTO-211H (Mesothelioma) = assay: as above
Summary of the method: as §1

[9] = test system: NCI-H1688 (Small Cell Lung Carcinoma); assay: as above
Summary of the method: as §1

[10] = test system: SK-LMS-1 (Other Solid Carcinomas); assay: as above
Summary of the method: as §1

[11] = test system: TC-YIK (Other Solid Carcinomas); assay: as above
Summary of the method: as §1

[12] = test system: FU-OV-1 (Ovarian Carcinoma); assay: combination Emax (second highest fraction inhibited in the dose matrix, 72 h); higher = more inhibition; extreme values may be limits of the assay
Summary of the method: as §1

[13] = test system: TC-YIK (Other Solid Carcinomas); assay: as above
Summary of the method: as §1

[14] = test system: SNU-61 (Colorectal Carcinoma); assay: Bliss excess, mean over the matrix (fraction); higher = more synergy
Summary of the method: as §1
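Wherever Bliss excess, mean over the matrix is given: after 72 h of two-drug dosing.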

SMILES	Bliss excess [1]	Bliss excess [2]	Bliss excess (CS1 (Chondrosarcoma))	Bliss excess [3]	Bliss excess [4]	Bliss excess [5]	Bliss excess [6]	Bliss excess [7]	Bliss excess [8]	Bliss excess (MSTO-211H (Mesothelioma))	Bliss excess [9]	Bliss excess [10]	Bliss excess [11]	combination Emax [12]	combination Emax [13]	Bliss excess [14]
CN(C)CCCOc1ccc(-c2ccc3ncc4c(c3c2)n(C2CCOCC2)c(=O)n4C)cn1 [AZD0156] + O=C(c1cc(Cc2n[nH]c(=O)c3ccccc23)ccc1F)N1CCN(C(=O)C2CC2)CC1 [Olaparib] (first compound max 3 µM, partner max 3 µM)	0.0562	0.0549	0.0148	-0.0029	-0.0526	0.109	-0.0194	0.0474	0.0239	-0.0685	-0.0122	0.0373	0.102	0.211	0.379	–
C=CCn1c(=O)c2cnc(Nc3ccc(N4CCN(C)CC4)cc3)nc2n1-c1cccc(C(C)(C)O)n1 [AZD1775] + C1CN(CCC1(C(=O)N[C@@H](CCO)C2=CC=C(C=C2)Cl)N)C3=NC=NC4=C3C=CN4 [Capivasertib] (first compound max 3 µM, partner max 3 µM)	0.0493	-0.0152	-0.0394	-0.107	-0.0615	-0.0422	-0.05	0.0152	–	-0.0797	-0.0409	-0.087	-0.0543	0.565	0.895	–
COc1nnc2ccc(N3CCC(c4ccc(OCCN5CCN(C)C(=O)[C@H]5C)cc4)CC3)nn12 [AZD5153] + C=CCn1c(=O)c2cnc(Nc3ccc(N4CCN(C)CC4)cc3)nc2n1-c1cccc(C(C)(C)O)n1 [AZD1775] (first compound max 1 µM, partner max 1 µM)	-0.0448	-0.0493	-0.0172	-0.0736	0.0138	-0.0247	-0.0047	0.004	-0.0693	-0.121	-0.0604	-0.0353	-0.0712	0.631	0.935	-0.0041
COc1nnc2ccc(N3CCC(c4ccc(OCCN5CCN(C)C(=O)[C@H]5C)cc4)CC3)nn12 [AZD5153] + CC1(C)CCC(CN2CCN(c3ccc(C(=O)NS(=O)(=O)c4ccc(NCC5CCOCC5)c([N+](=O)[O-])c4)c(Oc4cnc5[nH]ccc5c4)c3)CC2)=C(c2ccc(Cl)cc2)C1 [Venetoclax] (first compound max 1 µM, 7x7, partner max 1 µM)	-0.0455	-0.0432	-0.054	-0.11	-0.0369	0.0348	-0.0247	0.163	-0.0627	-0.111	-0.003	-0.0641	-0.0716	0.631	0.862	-0.0374
COc1nnc2ccc(N3CCC(c4ccc(OCCN5CCN(C)C(=O)[C@H]5C)cc4)CC3)nn12 [AZD5153] + CCN(CCO)CCCOc1ccc2c(Nc3cc(CC(=O)Nc4cccc(F)c4)[nH]n3)ncnc2c1 [AZD2811] (first compound max 1 µM, 7x7, partner max 1 µM)	0.0236	-0.0508	-0.0284	-0.118	-0.0571	-0.0378	-0.0474	0.0074	-0.047	-0.0182	0.0116	0.0012	-0.106	0.691	0.915	-0.0074
COc1nnc2ccc(N3CCC(c4ccc(OCCN5CCN(C)C(=O)[C@H]5C)cc4)CC3)nn12 [AZD5153] + C[C@@H]1COCCN1C2=NC(=NC(=C2)C3(CC3)[S@](=N)(=O)C)C4=C5C=CNC5=NC=C4 [AZD6738] (first compound max 1 µM, 7x7, partner max 10 µM)	0.029	-0.011	-0.0559	0.0107	-0.0452	0.0146	-0.0036	0.0159	-0.0595	-0.0354	0.0719	-0.0163	-0.0626	0.744	0.965	0.0459
COc1nnc2ccc(N3CCC(c4ccc(OCCN5CCN(C)C(=O)[C@H]5C)cc4)CC3)nn12 [AZD5153] + Cc1c2c(nn1C)CSCc1cc(n(C)n1)CSc1cc(c3ccccc3c1)OCCCc1c(C(=O)O)n(C)c3c-2c(Cl)ccc13 [AZD5991] (first compound max 1 µM, 7x7, partner max 1 µM)	-0.0135	0.0313	-0.0342	-0.0436	0.0022	0.0307	0.0412	0.0382	-0.0104	0.0307	0.0155	0.0003	-0.0146	0.835	0.98	-0.0178
COc1nnc2ccc(N3CCC(c4ccc(OCCN5CCN(C)C(=O)[C@H]5C)cc4)CC3)nn12 [AZD5153] + Cn1cnc2c(F)c(Nc3ccc(Br)cc3Cl)c(C(=O)NOCCO)cc21 [Selumetinib] (first compound max 1 µM, 7x7, partner max 10 µM)	0.0604	-0.0175	0.01	-0.0451	0.0236	-0.0266	0.0561	0.024	-0.0222	0.007	-0.0216	0.0383	0.0028	0.735	0.93	0.0407
NC1(C(=O)N[C@@H](CCO)c2ccc(Cl)cc2)CCN(c2ncnc3[nH]ccc23)CC1 [Capivasertib] + CC(=O)c1c(C)c2cnc(Nc3ccc(N4CCNCC4)cn3)nc2n(C2CCCC2)c1=O [Palbociclib] (first compound max 10 µM, 7x7, partner max 10 µM)	0.0129	0.0167	0.016	-0.0711	-0.0388	0.0262	0.0317	-0.0421	-0.0355	-0.0547	0.017	0.0514	-0.048	0.236	0.44	-0.0289
NC1(C(=O)N[C@@H](CCO)c2ccc(Cl)cc2)CCN(c2ncnc3[nH]ccc23)CC1 [Capivasertib] + CC(C)n1c(=O)n(C)c2cnc3cc(F)c(-c4ccc(OCCCN5CCCCC5)nc4)cc3c21 [AZD1390] (first compound max 10 µM, 7x7, partner max 0.3 µM)	-0.04	-0.0731	-0.0698	-0.0189	-0.0541	-0.0904	-0.0661	-0.0386	-0.0245	-0.0905	-0.044	-0.045	-0.0346	0.253	0.17	-0.064
NC1(C(=O)N[C@@H](CCO)c2ccc(Cl)cc2)CCN(c2ncnc3[nH]ccc23)CC1 [Capivasertib] + CCN(CCO)CCCOc1ccc2c(Nc3cc(CC(=O)Nc4cccc(F)c4)[nH]n3)ncnc2c1 [AZD2811] (first compound max 10 µM, 7x7, partner max 1 µM)	-0.0332	-0.051	-0.0211	-0.012	-0.0235	-0.0464	0.0137	-0.0204	-0.0484	-0.0073	-0.0412	-0.0055	-0.0415	0.268	0.95	-0.0435
NC1(C(=O)N[C@@H](CCO)c2ccc(Cl)cc2)CCN(c2ncnc3[nH]ccc23)CC1 [Capivasertib] + COc1nnc2ccc(N3CCC(c4ccc(OCCN5CCN(C)C(=O)[C@H]5C)cc4)CC3)nn12 [AZD5153] (first compound max 10 µM, 7x7, partner max 1 µM)	-0.0536	-0.0579	0.0057	0.0486	-0.0492	0.0163	-0.0035	-0.0162	-0.0355	0.0056	0.001	0.0014	-0.0723	0.575	0.962	-0.01
NC1(C(=O)N[C@@H](CCO)c2ccc(Cl)cc2)CCN(c2ncnc3[nH]ccc23)CC1 [Capivasertib] + C[C@@H]1COCCN1C2=NC(=NC(=C2)C3(CC3)[S@](=N)(=O)C)C4=C5C=CNC5=NC=C4 [AZD6738] (first compound max 10 µM, 7x7, partner max 10 µM)	-0.0386	0.0019	-0.0517	-0.066	-0.0313	-0.024	-0.105	-0.026	-0.0464	-0.0088	-0.0062	0.0094	0.0091	0.35	0.901	-0.0316
CS(=O)(=O)CCNCc1ccc(-c2ccc3ncnc(Nc4ccc(OCc5cccc(F)c5)c(Cl)c4)c3c2)o1 [Lapatinib] + NC1(c2ccc(-c3nc4ccn5c(=O)[nH]nc5c4cc3-c3ccccc3)cc2)CCC1 [MK-2206] (first compound max 10 µM, 7x7, partner max 10 µM)	–	-0.0006	-0.0142	-0.0441	0.0239	–	-0.0213	–	0.0128	-0.0466	-0.0202	0.0031	-0.014	0.751	0.944	–
